In paper PMC9864514, “Evaluation of the Local Anesthetic Activity, Acute Toxicity, and Structure–Toxicity Relationship in Series of Synthesized 1-Aryltetrahydroisoquinoline Alkaloid Derivatives In Vivo and In Silico” (Molecules, 2023):
“Also recorded” adds a separate entry of the source.

Key:
Assay type in all cases: in vivo
[1] = tested on: rabbit eye cornea; assay: Local anesthetic activity, rabbit eye cornea terminal anesthesia test; settings: for Onset of Anesthesia / Total Duration of Anesthesia / Duration of Complete Anesthesia / Duration of complete anesthesia, times longer than lidocaine: rabbit corneal model; for Onset of Anesthesia / Total Duration of Anesthesia / Duration of Complete Anesthesia: 1% aqueous solution; for Duration of Complete Anesthesia: percentage of the anesthetic activity of lidocaine (=100%); for Duration of complete anesthesia, times longer than lidocaine: 1% concentration; for Local irritant effects on rabbit eyes: concentrations studied
Method: Local anesthetic activity was evaluated using the rabbit eye cornea terminal anesthesia test on 2.0–2.5 kg male chinchilla rabbits after introduction of total 0.4 mL (0.2 mL twice with an interval of 30 s) of 1.0 % solutions of the studied substances. Lidocaine was used as an etalon drug. Each substance was tested on three rabbits.

[2] = Acute toxicity and resorptive action in white mice, intragastric administration; settings: mouse, in vivo, po, intragastric administration, N = 10, Litchfield–Wilcoxon
Method: (§1) The acute toxicity and resorptive action were determined in white mice weighing 20–24 g by gradual oral administration at doses of 1–5000 mg/kg.
(§2) The animals were kept under standard nursery conditions with a natural 12-h light-dark cycle, at an air temperature of 20 ± 2 °C. The animals had unlimited access to food and water. The experiments were performed in accordance with the International Convention for the Protection of Vertebrate Animals used for Experimental and Scientific Purposes (Strasbourg, 1986). Each substance was tested on 10 mice and LD50 was determined graphically by the well-known Litchfield–Wilcoxon method.

[3] = tested on: white mice; assay: as above; settings: for Decrease of acute toxicity compared with 3a: intragastric, relative to parent compound 3a
Method: as §1, §2

| Structure (SMILES) | Onset of Anesthesia [1] | Total Duration of Anesthesia [1] | LD50 [2] | Decrease of acute toxicity compared with 3a [3] | Duration of Complete Anesthesia [1] | Duration of complete anesthesia, times longer than lidocaine [1] | LD50 ([3]; intragastric administration, N = 10, Litchfield–Wilcoxon) | Local irritant effects on rabbit eyes [1] |
| --- | --- | --- | --- | --- | --- | --- | --- | --- |
| CCN(CC)CC(=O)Nc1c(C)cccc1C [Lidocaine, reference compound] | 5.0 ± 0.5 min | 52.7 ± 4.9 min |  |  |  |  |  |  |
| COc1cc2c(cc1OC)C(c1cc3c(cc1Cl)OCO3)NCC2 (centres unmarked) [Compound 3k, 1-(4′,5′-Methylenedioxy-2′-chlorophenyl)-6,7-dimethoxy-1,2,3,4-tetrahydroisoquinoline] | 2.0 ± 1.2 min | 43.0 ± 4.5 min | 520 mg/kg | 1.86 fold | +90% |  |  |  |
| COc1cc(Br)c(C2NCCc3cc(OC)c(OC)cc32)cc1OC (centres unmarked) [Compound 3g, 1-(2′-Bromo-4′,5′-dimethoxyphenyl)-6,7-dimethoxy-1,2,3,4-tetrahydroisoquinoline] | 2.0 ± 1.0 min | 44.0 ± 3.5 min | 290 mg/kg | no significant change in acute toxicity | +90% |  |  |  |
| COc1cc2c(cc1OC)C(c1ccc([N+](=O)[O-])cc1)NCC2 (centres unmarked) [Compound 3m, 1-(4′-Nitrophenyl)-6,7-dimethoxy-1,2,3,4-tetrahydroisoquinoline] | 3.0 ± 0.4 min | 48.0 ± 2.8 min | 1950 mg/kg |  | +80% |  |  |  |
| COc1cc2c(cc1OC)C(c1cccc(Br)c1)NCC2 (centres unmarked) [Compound 3o, 1-(3′-Bromophenyl)-6,7-dimethoxy-1,2,3,4-tetrahydroisoquinoline] | 2.0 ± 0.4 min | 115.0 ± 3.8 min | 710 mg/kg | 2.5–2.6 fold | +130% |  |  |  |
| COc1cc2c(cc1OC)C(c1ccc(N(C)C)cc1)NCC2 (centres unmarked) [Compound 3q, 1-(4′-Dimethylaminophenyl)-6,7-dimethoxy-1,2,3,4-tetrahydroisoquinoline] | 2.0 ± 0.6 min | 45.0 ± 4.1 min | 1250 mg/kg | ~4.5 fold | +220% | 2.2 times |  |  |
| COc1cc2c(cc1OC)C(c1ccccc1)NCC2 (centres unmarked) [Compound 3a, 1-(Phenyl)-6,7-dimethoxy-1,2,3,4-tetrahydroisoquinoline] | 3.0 ± 1.1 min | 53.0 ± 4.6 min | 280 mg/kg |  | +50% |  |  |  |
| COc1cc2c(cc1OC)C(c1cc(Br)ccc1O)NCC2 (centres unmarked) [Compound 3f, 1-(5′-Bromo-2′-hydroxyphenyl)-6,7-dimethoxy-1,2,3,4-tetrahydroisoquinoline] | 1.0 ± 0.5 min | 64.0 ± 3.8 min | 305 mg/kg | did not result in a significant decrease of toxicity |  | 1.6 times |  |  |
| COc1cc2c(cc1OC)C(c1cccc([N+](=O)[O-])c1)NCC2 (centres unmarked) [Compound 3n, 1-(3′-Nitrophenyl)-6,7-dimethoxy-1,2,3,4-tetrahydroisoquinoline] | 3.0 ± 1.0 min | 37.0 ± 3.2 min | 460 ± 598 mg/kg |  | +260% | 2.6 times | 525 (460.5 ± 598.5) mg/kg | eye irritation and redness; also recorded: reversible irritation and redness of the eyes |
| COc1cc2c(cc1OC)C(c1ccc(N)cc1)NCC2 (centres unmarked) [Compound 4a, 1-(4′-Aminophenyl)-6,7-dimethoxy-1,2,3,4-tetrahydroisoquinoline] | 2.0 ± 0.7 min | 25.0 ± 4.0 min | 1050 mg/kg | 3.75 fold | +40% |  |  | eye irritation and redness; also recorded: reversible irritation and redness of the eyes |
| COc1cc2c(cc1OC)C(c1cc3c(cc1Br)OCO3)NCC2 (centres unmarked) [Compound 3j, 1-(2′-Bromo-4′,5′-methylenedioxyphenyl)-6,7-dimethoxy-1,2,3,4-tetrahydroisoquinoline] | 2.0 ± 1.0 min | 52.0 ± 4.0 min | 730 mg/kg | 2.5 fold | +90% |  |  |  |
| COc1cc2c(cc1OC)C(c1ccccc1O)NCC2 (centres unmarked) [Compound 3b, 1-(2′-Hydroxyphenyl)-6,7-dimethoxy-1,2,3,4-tetrahydroisoquinoline] | 1.0 ± 0.4 min | 44.0 ± 1.5 min | 375 mg/kg | did not result in a significant decrease of toxicity | +50% |  |  |  |
| COc1ccc(C2NCCc3cc(OC)c(OC)cc32)cc1OC (centres unmarked) [Compound 3d, 1-(3′,4′-Dimethoxyphenyl)-6,7-dimethoxy-1,2,3,4-tetrahydroisoquinoline] | 2.0 ± 0.7 min | 70.0 ± 2.1 min | 670 mg/kg | 2.5–2.6 fold | +60% |  |  |  |
| COc1cc(Br)c(C2NCCc3cc(OC)c(OC)cc32)cc1O (centres unmarked) [Compound 3h, 1-(2′-Bromo-5′-hydroxy-4′-methoxyphenyl)-6,7-dimethoxy-1,2,3,4-tetrahydroisoquinoline] | 1.0 ± 0.4 min | 40.0 ± 3.2 min | 550 mg/kg | about 2 fold | +170% | 1.7 times |  |  |
| COc1cc2c(cc1OC)C(c1ccc(O)c(Br)c1)NCC2 (centres unmarked) [Compound 3e, 1-(3′-Bromo-4′-hydroxyphenyl)-6,7-dimethoxy-1,2,3,4-tetrahydroisoquinoline] | 5.0 ± 0.9 min | 80.0 ± 3.2 min | 3850 mg/kg | 13.75 fold | +49% |  |  |  |
| COc1cc2c(cc1OC)C(c1ccc(Cl)cc1)NCC2 (centres unmarked) [Compound 3r, 1-(4′-Chlorophenyl)-6,7-dimethoxy-1,2,3,4-tetrahydroisoquinoline] | 2.0 ± 0.6 min | 35.0 ± 3.4 min | 740 mg/kg | 2.5–2.6 fold | +150% |  |  | eye irritation and redness; also recorded: reversible irritation and redness of the eyes |
| COc1cc2c(cc1OC)C(c1ccccc1OC)NCC2 (centres unmarked) [Compound 3p, 1-(2′-Methoxyphenyl)-6,7-dimethoxy-1,2,3,4-tetrahydroisoquinoline] | 3.0 ± 0.8 min | 67.0 ± 3.6 min | 300 mg/kg | did not result in a significant decrease of toxicity | +300% | 3.0 times |  |  |
| COc1cc2c(cc1OC)C(c1cccc(N)c1)NCC2 (centres unmarked) [Compound 4b, 1-(3′-Aminophenyl)-6,7-dimethoxy-1,2,3,4-tetrahydroisoquinoline] | 3.0 ± 0.7 min | 44.0 ± 4.1 min | 750 mg/kg |  | +0% |  |  |  |
| COc1cc2c(cc1OC)C(c1cc(Br)c(O)c(OC)c1)NCC2 (centres unmarked) [Compound 3l, 1-(5′-Bromo-4′-hydroxy-3′-methoxyphenyl)-6,7-dimethoxy-1,2,3,4-tetrahydroisoquinoline] | 5.0 ± 1.2 min | 89.0 ± 3.0 min | 1560 mg/kg | 5.6 fold | +140% | 1.4 times |  |  |
| COc1cc2c(cc1OC)C(c1ccc3c(c1)OCO3)NCC2 (centres unmarked) [Compound 3i, 1-(3′,4′-Methylenedioxyphenyl)-6,7-dimethoxy-1,2,3,4-tetrahydroisoquinoline] | 2.0 ± 0.4 min | 57.0 ± 3.7 min | 280 mg/kg | did not lead to a change in acute toxicity | +80% |  |  |  |
| COc1ccc(C2NCCc3cc(OC)c(OC)cc32)cc1O (centres unmarked) [Compound 3c, 1-(3′-Hydroxy-4′-methoxyphenyl)-6,7-dimethoxy-1,2,3,4-tetrahydroisoquinoline] | 3.0 ± 0.8 min | 70.0 ± 4.5 min | 980 mg/kg | 3.5 fold | +40% |  |  |  |
